Experiment [1] deals with human non-small cell lung cancer A549 cells. Kind of experiment: Inhibitory action on the proliferation of A549 cells. Format: cell-based. As to conditions: 96 hours, TetraColor ONE; for IC50: Homo sapiens, A549. As to the method: (§1) The action of the phenanthroindolizidine alkaloid compound of the present invention on the proliferation of human colon cancer SW480 cells, HT-29 cells, and human non-small cell lung cancer A549 cells was studied. The SW480 cells were suspended in a 10% FBS/RPMI1640 and then seeded in a 96-well microplate, followed by culturing in 5% CO2 at 37° C. (2000 cells/well). The A549 cells and the HT-29 cells were each suspended in a DMEM medium containing 10% FBS, 100 U/mL penicillin, and 100 μg/mL streptomycin (10% FBS/DMEM) and a DMEM F-12 HAM medium containing 10% FBS, 100 U/mL penicillin, and 100 μg/mL streptomycin (10% FBS/DMEM F12 HAM), and then seeded in 96-well microplates, followed by culturing in 5% CO2 at 37° C. (1000 cells/well). After an overnight culture, the compound of the present invention was added, followed by further culturing for 48 hours (SW480 cells) and 96 hours (A549 cells and HT-29 cells). After culturing, the number of viable cells was counted using TetraColor ONE (Seikagaku Corporation) in accordance with the attached operating procedure. The results were expressed as the concentration of a test compound needed for 50% inhibition of the proliferation of the cells (IC50).

The subject of experiment [2] is human colon cancer SW480 cells. The experiment in a line: Inhibitory action on the proliferation of SW480 cells. Format: cell-based. As to conditions: 48 hours, TetraColor ONE; for IC50: Homo sapiens, SW480. As to the method:
as §1

The subject of the next experiment is NFκB. Kind of experiment: Inhibitory action on the NFκB activity, luciferase assay in SW480/NRE-Luc cells. Type of experiment: cell-based, human. Particulars: for IC50: Homo sapiens. An excerpt: (§2) The action of the phenanthroindolizidine alkaloid compound of the present invention on the NFκB activity was studied using a luciferase assay. Human colon cancer SW480 cells were transfected with pNFκB-Luc Plasmid (Stratagene), which is a reporter vector in which a five-time tandem repeat of the NFκB responsive element (NRE) is integrated into the upstream of the luciferase gene, using Lipofectamine 2000 (Invitrogen Corporation) in accordance with the attached operating procedure. Subsequently, the cells were cultured in an RPMI1640 medium containing 10% FBS, 100 U/mL penicillin, 100 μg/mL streptomycin, and 0.5 mg/mL G418 to produce SW480 cells having the luciferase gene, the expression of which is regulated by NRE, stably introduced therein (SW480/NRE-Luc cells). Likewise, SW480 cells were transfected with pGL3-Control Vector (Promega Corporation), which is a reporter vector in which the SV40 promoter is integrated into the upstream of the luciferase gene, to produce SW480 cells having the luciferase gene, the expression of which is regulated by the SV40 promoter, stably introduced therein (SW480/SV40-Luc cells). The SW480/NRE-Luc cells or the SW480/SV40-Luc cells were suspended in an RPMI1640 medium containing 10% FBS, 100 U/mL penicillin, and 100 μg/mL streptomycin (10% FBS/RPMI1640), and then seeded in a 96-well microplate, followed by culturing under conditions of 5% CO2 and at 37° C. (5000 cells/well). After an overnight culture, the compound of the present invention was added, followed by culturing for one hour. Further, 50 ng/mL TNFα (Sigma-Aldrich Corporation) was added, followed by culturing for four hours. Subsequently, a Steady-Glo Luciferase Assay reagent (Promega Corporation) was added, and the luminescent intensity was detected by SpectraMax M5e (Molecular Devices, Inc.) to measure the intracellular luciferase activity. It is to be noted that the action of the compound of the present invention on the NFκB activity or the SV40 promoter activity was shown as IC50 values (the concentration of a test compound needed for 50% inhibition of the induction of the luciferase expression).

Experiment [3] relates to human colon cancer HT-29 cells. Kind of experiment: Inhibitory action on the proliferation of HT-29 cells. Type of experiment: cell-based. Particulars: 96 hours, TetraColor ONE; for IC50: Homo sapiens, HT-29. On the procedure: as §1
The next experiment concerns SV40 promoter. The experiment in a line: SV40 promoter activity, luciferase assay in SW480/SV40-Luc cells. Type of experiment: cell-based, human. As to conditions: for IC50: Homo sapiens.
Excerpt: as §2

Setting [4] is: SW480, read-out: NFκB inhibitory activity IC50.
Setting [5] is: SW480, read-out: SV40 promoter inhibitory activity IC50.
Where [6] appears, read: SW480/NRE-Luc cells, compound 1 h then 50 ng/mL TNFα 4 h, luciferase.
The mark [7] stands for this setting: SW480/SV40-Luc cells, luciferase.

Values after ≈ are worked out from the molar mass of the structure shown. Where two headings read alike, the source gives them in different places. Where only a bound is given, the exact number is not on record here.

Broadly, the IC50 is the concentration needed to halve the response being measured.

For the compound `COc1cc2c3c(c4ccccc4c2cc1OC)[C@H](O)[C@@H]1CCCN1C3.Cl` [Compound 1, (12aS,13S)-6,7-dimethoxy-9,10,11,12,12a,13-hexahydro-9a-aza-cyclopenta[b]triphenylene-13-ol hydrochloride], the IC50 in experiment [1] was 2.6 ng/mL; in experiment [2] it was 5.1 ng/mL; in the experiment with NFκB (setting [4]), 2.7 ng/mL; in experiment [3] it was 3.7 ng/mL; in the experiment on SV40 promoter (setting [5]), > 1000 ng/mL.

As for `CCc1ccc2c3c(c4cc(OC)c(OC)cc4c2c1)CN1CCC[C@H]1[C@H]3O.Cl` [Compound 3, (12aS,13S)-3-ethyl-6,7-dimethoxy-9,10,11,12,12a,13-hexahydro-9a-aza-cyclopenta[b]triphenylene-13-ol hydrochloride], the IC50 in experiment [1] was 24.5 ng/mL; in experiment [2], 219 ng/mL; with NFκB (setting [4]), 105 ng/mL; in experiment [3] it was 50.8 ng/mL; in the experiment with SV40 promoter (setting [5]), > 10000 ng/mL.

In the case of `COc1cc2c3c(c4ccc(F)cc4c2cc1OC)[C@H](O)[C@@H]1CCCN1C3.Cl` [Compound 5, (12aS,13S)-3-fluoro-6,7-dimethoxy-9,10,11,12,12a,13-hexahydro-9a-aza-cyclopenta[b]triphenylene-13-ol hydrochloride], the IC50 in experiment [1] is 4.1 ng/mL; in experiment [2], 39.2 ng/mL; with NFκB (setting [4]) it was 20.7 ng/mL; in experiment [3], 7.2 ng/mL; in the experiment with SV40 promoter (setting [5]) it was > 1000 ng/mL.

`COc1cc2c3c(c4ccc(OC(=O)C(C)C)cc4c2cc1OC)[C@H](O)[C@@H]1CCCN1C3.Cl` [Compound 9, isobutyric acid(12aS,13S)-13-hydroxy-6,7-dimethoxy-9,10,11,12,12a,13-hexahydro-9a-aza-cyclopenta[b]triphenylene-3-yl ester hydrochloride]: the “A549 proliferation inhibitory action IC50” value in experiment [1] amounted to 0.57 ng/mL. The “SW480 proliferation inhibitory action IC50” value in experiment [2] was 0.36 ng/mL. Also, in the experiment on NFκB (setting [6]), the “NFκB inhibitory activity IC50” value was determined as 0.26 ng/mL. In addition, in experiment [3], the “HT-29 proliferation inhibitory action IC50” value is on record as 0.38 ng/mL. Moreover, in the experiment with SV40 promoter (setting [7]), the “SV40 promoter inhibitory activity IC50” value is >100 ng/mL.

Turning to `COc1cc2c3c(c4ccc(OC(=O)C(C)(C)C)cc4c2cc1OC)[C@H](O)[C@@H]1CCCN1C3.Cl` [Compound 10, 2,2-dimethyl-propionic acid(12aS,13S)-13-hydroxy-6,7-dimethoxy-9,10,11,12,12a,13-hexahydro-9a-aza-cyclopenta[b]triphenylene-3-yl ester hydrochloride], in experiment [1], the “A549 proliferation inhibitory action IC50” value was determined as 0.14 ng/mL. Besides, the “SW480 proliferation inhibitory action IC50” value in experiment [2] worked out at 0.73 ng/mL. In addition, in the experiment on NFκB (setting [6]), the “NFκB inhibitory activity IC50” value was determined as 0.49 ng/mL. Besides, in experiment [3], the “HT-29 proliferation inhibitory action IC50” value is 0.47 ng/mL. In addition, the “SV40 promoter inhibitory activity IC50” value in the experiment with SV40 promoter (setting [7]) was >100 ng/mL.

Turning to `COc1cc2c3c(c4ccc(OC(=O)c5cccnc5)cc4c2cc1OC)[C@H](O)[C@@H]1CCCN1C3.Cl` [Compound 11, nicotinic acid(12aS,13S)-13-hydroxy-6,7-dimethoxy-9,10,11,12,12a,13-hexahydro-9a-aza-cyclopenta[b]triphenylene-3-yl ester hydrochloride], the “A549 proliferation inhibitory action IC50” value in experiment [1] turned out to be 0.028 ng/mL. For the same compound, the “SW480 proliferation inhibitory action IC50” value in experiment [2] amounted to 0.50 ng/mL. Besides, the “NFκB inhibitory activity IC50” value in the experiment with NFκB (setting [6]) is recorded as 0.48 ng/mL. Moreover, the “HT-29 proliferation inhibitory action IC50” value in experiment [3] is 0.44 ng/mL. Further, the “SV40 promoter inhibitory activity IC50” value with SV40 promoter (setting [7]) was >10 ng/mL.

As to `COc1cc2c3c(c4ccc(OC(=O)c5ccncc5)cc4c2cc1OC)[C@H](O)[C@@H]1CCCN1C3.Cl` [Compound 12, isonicotinic acid(12aS,13S)-13-hydroxy-6,7-dimethoxy-9,10,11,12,12a,13-hexahydro-9a-aza-cyclopenta[b]triphenylene-3-yl ester hydrochloride], in experiment [1], the “A549 proliferation inhibitory action IC50” value stood at 0.19 ng/mL. Moreover, in experiment [2], the “SW480 proliferation inhibitory action IC50” value was found to be 0.51 ng/mL. The “NFκB inhibitory activity IC50” value in the experiment on NFκB (setting [6]) was 0.33 ng/mL. In experiment [3], the “HT-29 proliferation inhibitory action IC50” value came to 0.62 ng/mL. In addition, the “SV40 promoter inhibitory activity IC50” value in the experiment on SV40 promoter (setting [7]) is >100 ng/mL.

`CCC(=O)Oc1ccc2c3c(c4cc(OC)c(OC)cc4c2c1)CN1CCC[C@H]1[C@H]3O.Cl` [Compound 15, propionic acid(12aS,13S)-13-hydroxy-6,7-dimethoxy-9,10,11,12,12a,13-hexahydro-9a-aza-cyclopenta[b]triphenylene-3-yl ester hydrochloride]: the “A549 proliferation inhibitory action IC50” value in experiment [1] was 0.35 ng/mL. In experiment [2], the “SW480 proliferation inhibitory action IC50” value was found to be 0.39 ng/mL. Besides, the “NFκB inhibitory activity IC50” value with NFκB (setting [6]) is given as 0.20 ng/mL. Further, the “HT-29 proliferation inhibitory action IC50” value in experiment [3] is listed as 0.62 ng/mL. Moreover, in the experiment with SV40 promoter (setting [7]), the “SV40 promoter inhibitory activity IC50” value is listed as >100 ng/mL.

Turning to `COc1cc2c3c(c4ccc(NC(=O)OCC(C)C)cc4c2cc1OC)[C@H](O)[C@@H]1CCCN1C3.Cl` [Compound 18, ((12aS,13S)-13-hydroxy-6,7-dimethoxy-9,10,11,12,12a,13-hexahydro-9a-aza-cyclopenta[b]triphenylene-3-yl)-carbamic acid isobutyl ester hydrochloride], the IC50 in experiment [1] is 16.2 ng/mL; in experiment [2], 27.6 ng/mL; with NFκB (setting [4]), 15.5 ng/mL; in experiment [3], 18.1 ng/mL; in the experiment on SV40 promoter (setting [5]) it was > 1000 ng/mL.

As to `COc1cc2c3c(c4ccc(OC(=O)c5ccoc5)cc4c2cc1OC)[C@H](O)[C@@H]1CCCN1C3.Cl` [Compound 22, furan-3-carboxylic acid(12aS,13S)-13-hydroxy-6,7-dimethoxy-9,10,11,12,12a,13-hexahydro-9a-aza-cyclopenta[b]triphenylene-3-yl ester hydrochloride], the “A549 proliferation inhibitory action IC50” value in experiment [1] worked out at 1.1 ng/mL. Moreover, in experiment [2], the “SW480 proliferation inhibitory action IC50” value stood at 2.8 ng/mL. The “NFκB inhibitory activity IC50” value with NFκB (setting [6]) is 1.7 ng/mL. Also, the “HT-29 proliferation inhibitory action IC50” value in experiment [3] is 1.9 ng/mL. Also, the “SV40 promoter inhibitory activity IC50” value in the experiment on SV40 promoter (setting [7]) is given as >1000 ng/mL.

Regarding `COc1cc2c3c(c4ccc(OC(=O)c5ccsc5)cc4c2cc1OC)[C@H](O)[C@@H]1CCCN1C3.Cl` [Compound 23, thiophene-3-carboxylic acid(12aS,13S)-13-hydroxy-6,7-dimethoxy-9,10,11,12,12a,13-hexahydro-9a-aza-cyclopenta[b]triphenylene-3-yl ester hydrochloride], the “A549 proliferation inhibitory action IC50” value in experiment [1] turned out to be 0.76 ng/mL. Moreover, in experiment [2], the “SW480 proliferation inhibitory action IC50” value is recorded as 3.1 ng/mL. Further, the “NFκB inhibitory activity IC50” value in the experiment on NFκB (setting [6]) came out at 4.1 ng/mL. Also, the “HT-29 proliferation inhibitory action IC50” value in experiment [3] is 1.4 ng/mL. In the experiment on SV40 promoter (setting [7]), the “SV40 promoter inhibitory activity IC50” value is reported as >100 ng/mL.

Regarding `S=C(S)N1CCCC1` [PDTC, pyrrolidine dithiocarbamate, reference compound], the IC50 was 2400 ng/mL (≈ 16.3 µM) in the experiment with NFκB (SW480/NRE-Luc cells, compound 1 h then 50 ng/mL TNFα 4 h, luciferase, read-out: NFκB inhibitory activity IC50) and > 10000 ng/mL with SV40 promoter (SW480/SV40-Luc cells, luciferase, read-out: SV40 promoter inhibitory activity IC50).

The record behind these values is US8569327B2, “Phenanthroindolizidine derivative and NFκB inhibitor containing same as active ingredient” (Kabushiki Kaisha Yakult Honsha, priority 2008, dated 2013).
